Experimental data reported in patent publication US8754242B2, “Herbicides” (Syngenta Crop Protection LLC, priority 2007, dated 2014).

What was measured:
Format in all cases: in vivo
[1] = system: Alopecurus myosuroides (ALOMY); experiment: Test Example 1 pre-emergence herbicidal activity; settings: rate 250 g/ha, evaluated 20 days later; for pest or weed control at 250 g/ha: Alopecurus myosuroides, 480 h, read-out: Pre-emergence activity ALOMY (100=total damage to plant; 0=no damage to plant)
Protocol: (§1) Monocotyledonous and dicotyledonous test plants were sown in standard soil in pots. After cultivation for one day (pre-emergence) or after 10 days cultivation (post-emergence) under controlled conditions in a glasshouse, the plants were sprayed with an aqueous spray solution derived from the formulation of the technical active ingredient in 0.6 ml acetone and 45 ml formulation solution containing 10.6% Emulsogen EL (Registry number 61791-12-6), 42.2% N-methylpyrrolidone, 42.2% dipropylene glycol monomethyl ether (Registry number 34590-94-8) and 0.2% X-77 (Registry number 11097-66-8). The test plants were then grown in a greenhouse under optimum conditions until, 15 days later for post-emergence and 20 days for pre-emergence, the test was evaluated (100=total damage to plant; 0=no damage to plant).
(§2) Alopecurus myosuroides (ALOMY), Avena fatua (AVEFA), Lolium perenne (LOLPE), Setaria faberi (SETFA), Digitaria sanguinalis (DIGSA), Echinochloa crus-galli (ECHCG)

Avena fatua (AVEFA) [2] = experiment: Test Example 1 pre-emergence herbicidal activity; settings: rate 250 g/ha, evaluated 20 days later; for pest or weed control at 250 g/ha: Avena fatua, 480 h, read-out: Pre-emergence activity AVEFA (100=total damage to plant; 0=no damage to plant)
Protocol: as §1, §2

[3] = system: Digitaria sanguinalis (DIGSA); experiment: Test Example 1 pre-emergence herbicidal activity; settings: Digitaria sanguinalis, 480 h, rate 250 g/ha, evaluated 20 days later, read-out: Pre-emergence activity DIGSA (100=total damage to plant; 0=no damage to plant)
Protocol: as §1, §2

[4] = system: Echinochloa crus-galli (ECHCG); experiment: Test Example 1 pre-emergence herbicidal activity; settings: Echinochloa crus-galli, 480 h, rate 250 g/ha, evaluated 20 days later, read-out: Pre-emergence activity ECHCG (100=total damage to plant; 0=no damage to plant)
Protocol: as §1, §2

Lolium perenne (LOLPE) [5] = experiment: Test Example 1 pre-emergence herbicidal activity; settings: Lolium perenne, 480 h, rate 250 g/ha, evaluated 20 days later, read-out: Pre-emergence activity LOLPE (100=total damage to plant; 0=no damage to plant)
Protocol: as §1, §2

Setaria faberi (SETFA) [6] = experiment: Test Example 1 pre-emergence herbicidal activity; settings: Setaria faberi, 480 h, rate 250 g/ha, evaluated 20 days later, read-out: Pre-emergence activity SETFA (100=total damage to plant; 0=no damage to plant)
Protocol: as §1, §2

[7] = system: Alopecurus myosuroides (ALOMY); experiment: Test Example 1 post-emergence herbicidal activity; settings: 360 h, rate 125 g/ha, evaluated 15 days later, read-out: Post-emergence activity ALOMY (100=total damage to plant; 0=no damage to plant)
Protocol: as §1, §2

Avena fatua (AVEFA) [8] = experiment: Test Example 1 post-emergence herbicidal activity; settings: 360 h, rate 125 g/ha, evaluated 15 days later, read-out: Post-emergence activity AVEFA (100=total damage to plant; 0=no damage to plant)
Protocol: as §1, §2

[9] = system: Digitaria sanguinalis (DIGSA); experiment: Test Example 1 post-emergence herbicidal activity; settings: 360 h, rate 125 g/ha, evaluated 15 days later, read-out: Post-emergence activity DIGSA (100=total damage to plant; 0=no damage to plant)
Protocol: as §1, §2

[10] = system: Echinochloa crus-galli (ECHCG); experiment: Test Example 1 post-emergence herbicidal activity; settings: 360 h, rate 125 g/ha, evaluated 15 days later, read-out: Post-emergence activity ECHCG (100=total damage to plant; 0=no damage to plant)
Protocol: as §1, §2

Lolium perenne (LOLPE) [11] = experiment: Test Example 1 post-emergence herbicidal activity; settings: 360 h, rate 125 g/ha, evaluated 15 days later, read-out: Post-emergence activity LOLPE (100=total damage to plant; 0=no damage to plant)
Protocol: as §1, §2

Setaria faberi (SETFA) [12] = experiment: Test Example 1 post-emergence herbicidal activity; settings: 360 h, rate 125 g/ha, evaluated 15 days later, read-out: Post-emergence activity SETFA (100=total damage to plant; 0=no damage to plant)
Protocol: as §1, §2

| SMILES | pest or weed control at 250 g/ha [1] [%] | pest or weed control at 250 g/ha (Avena fatua (AVEFA) [2]) [%] | pest or weed control at 250 g/ha [3] [%] | pest or weed control at 250 g/ha [4] [%] | pest or weed control at 250 g/ha (Lolium perenne (LOLPE) [5]) [%] | pest or weed control at 250 g/ha (Setaria faberi (SETFA) [6]) [%] | pest or weed control at 125 g/ha [7] [%] | pest or weed control at 125 g/ha (Avena fatua (AVEFA) [8]) [%] | pest or weed control at 125 g/ha [9] [%] | pest or weed control at 125 g/ha [10] [%] | pest or weed control at 125 g/ha (Lolium perenne (LOLPE) [11]) [%] | pest or weed control at 125 g/ha (Setaria faberi (SETFA) [12]) [%] | Pre-emergence activity ALOMY (100=total damage to plant; 0=no damage to plant) [1] | Pre-emergence activity AVEFA (100=total damage to plant; 0=no damage to plant) (Avena fatua (AVEFA) [2]) |
| --- | --- | --- | --- | --- | --- | --- | --- | --- | --- | --- | --- | --- | --- | --- |
| CCc1cc(C)cc(CC)c1C1=C(OC(=O)C2CCCCC2)[C@H]2[C@@H](C1=O)[C@@H]1CC[C@H]2O1 (racemic) [Example P17] | 90 | 90 | 100 | 100 | 100 | 100 | 100 | 90 | 100 | 100 | 100 | 100 |  |  |
| CCOC(=O)OC1=C(c2c(CC)cc(C)cc2CC)C(=O)[C@@H]2[C@H]1[C@H]1CC[C@@H]2O1 (racemic) [Example P18, carbonic acid (1RS,2SR,6RS,7SR)-5-oxo-4-(2,6-diethyl-4-methylphenyl)-10-oxatricyclo[5.2.1.0^2,6]-dec-3-en-3-yl ester ethyl ester] | 100 | 100 | 100 | 100 | 100 | 100 | 90 | 50 | 70 | 100 | 80 | 70 |  |  |
| CCCCCCC(=O)OC1=C(c2c(CC)cc(C)cc2CC)C(=O)[C@@H]2[C@H]1[C@H]1CC[C@@H]2O1 (racemic) [Example P20] | 100 | 80 | 100 | 100 | 100 | 100 | 100 | 100 | 80 | 100 | 100 | 90 |  |  |
| CCc1cc(C)cc(CC)c1C1=C(OC(=O)C2CC2)[C@H]2[C@@H](C1=O)[C@@H]1CC[C@H]2O1 (racemic) [Example P21] | 100 | 100 | 100 | 100 | 100 | 100 | 90 | 100 | 80 | 100 | 100 | 100 |  |  |
| CCC(=O)OC1=C(c2c(CC)cc(C)cc2CC)C(=O)[C@@H]2[C@H]1[C@H]1CC[C@@H]2O1 (racemic) [Example P22] | 100 | 100 | 100 | 100 | 100 | 100 | 100 | 100 | 100 | 100 | 100 | 100 |  |  |
| C#CCOC(=O)OC1=C(c2c(CC)cc(C)cc2CC)C(=O)[C@@H]2[C@H]1[C@H]1CC[C@@H]2O1 (racemic) [Example P25] | 100 | 100 | 100 | 100 | 100 | 100 | 100 | 90 | 80 | 100 | 100 | 80 |  |  |
| C#CCOC(=O)OC1=C(c2c(C)cc(C)cc2C)C(=O)[C@@H]2[C@H]1[C@@]1(C)CC[C@]2(C)O1 (racemic) [Example P36] | 70 | 80 | 80 | 100 | 100 | 80 | 60 | 70 | 80 | 90 | 60 | 80 |  |  |
| Cc1cc(C)c(C2=C(O)[C@H]3[C@@H](C2=O)[C@@H]2CC[C@@]3(C)O2)c(C)c1 (racemic) [Example T9] |  |  | 100 | 100 | 100 | 100 | 80 | 60 | 100 | 100 | 70 | 80 | 70 | 40 |
| CCc1cc(C)cc(CC)c1C1=C(O)[C@H]2[C@@H](C1=O)[C@@H]1C=C(C#C[Si](C)(C)C)[C@H]2O1 (racemic) [Example T11] | 30 | 40 | 0 | 30 | 60 | 20 | 40 | 20 | 80 | 70 | 30 | 70 |  |  |
| CCc1cc(C)cc(CC)c1C1=C(O)[C@H]2[C@@H](C1=O)[C@@H]1C=C[C@@]2(CO)O1 (racemic) [Example T13] | 80 | 80 | 100 | 100 | 90 | 100 | 80 | 90 | 50 | 100 | 90 | 100 |  |  |
| Cc1cc(C)c(C2=C(O)[C@H]3[C@@H](C2=O)[C@@H]2C=C[C@@]3(CO)O2)c(C)c1 (racemic) [Example T37] | 60 | 30 | 20 | 30 | 30 | 0 | 50 | 20 | 50 | 80 | 20 | 70 |  |  |
| CSC[C@]12C=C[C@H](O1)[C@@H]1C(=O)C(c3c(C)cc(C)cc3C)=C(O)[C@@H]12 (racemic) [Example T41] | 50 | 30 | 30 | 70 | 20 | 60 | 40 | 0 | 80 | 80 | 0 | 80 |  |  |
